pIC50: −log10 of the molar value. Converted amounts (≈) assume the structure as drawn. Each block holds one molecule with its values, some of them ahead of it.
Assays:
[1] = target: T1, NAD-dependent protein deacetylase sirtuin-2 (Homo sapiens, UniProt Q8IXJ6); assay: Inhibition of sirtuin 2 (unknown origin)
T1 sequence (Q8IXJ6 whole entry): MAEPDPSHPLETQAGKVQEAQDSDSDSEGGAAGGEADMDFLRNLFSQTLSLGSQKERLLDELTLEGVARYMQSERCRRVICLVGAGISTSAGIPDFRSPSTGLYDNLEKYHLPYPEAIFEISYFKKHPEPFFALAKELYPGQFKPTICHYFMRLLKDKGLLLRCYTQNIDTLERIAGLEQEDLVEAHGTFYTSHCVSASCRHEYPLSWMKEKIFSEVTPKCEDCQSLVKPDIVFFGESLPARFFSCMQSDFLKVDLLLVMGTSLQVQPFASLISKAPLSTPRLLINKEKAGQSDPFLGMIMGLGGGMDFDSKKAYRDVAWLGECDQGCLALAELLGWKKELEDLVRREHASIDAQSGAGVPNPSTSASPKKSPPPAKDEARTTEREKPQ

Tobacco mosaic virus [2] = assay: Antiviral activity against Tobacco mosaic virus assessed as protection effect relative to control; type: functional
Tobacco mosaic virus [3] = assay: Antiviral activity against Tobacco mosaic virus assessed as curative effect relative to control; type: functional
Tobacco mosaic virus [4] = assay: Antiviral activity against Tobacco mosaic virus assessed as inactivation effect relative to control; type: functional
HeLa [5] = assay: Cytotoxicity against human HeLa cells incubated for 24 hrs by MTT reduction assay; type: functional, cell-based
A549 [6] = assay: Antiproliferative activity against human A549 cells by MTT reduction assay; type: functional, cell-based
SK-N-SH = assay: Antiproliferative activity against human SK-N-SH cells by MTT reduction assay; type: functional, cell-based
HepG2 [7] = assay: Antiproliferative activity against human HepG2 cells by MTT reduction assay; type: functional, cell-based
MCF7 = assay: Antiproliferative activity against human MCF7 cells by MTT reduction assay; type: functional, cell-based
[8] = Antiproliferative activity against human U87 cells; type: functional, cell-based, U-87MG ATCC; conditions: U-87 MG
Huh-7 = assay: cells; type: functional, cell-based; conditions: Homo sapiens
Description: Antiproliferative activity against human Huh-7 cells

cells = type: functional, cell-based; conditions: Homo sapiens, HCCC9810
Description: Antiproliferative activity against human HCCC9810 cells

A549 [9] = assay: Antiproliferative activity against human A549 cells; type: functional, cell-based
K562 = assay: Antiproliferative activity against human K562 cells; type: functional, cell-based
PC-3 = assay: Antiproliferative activity against human PC-3 cells; type: functional, cell-based
Proteus mirabilis = assay: microbe, parasite or virus in culture; conditions: PTCC 1776
Description: Antimicrobial activity against Proteus mirabilis PTCC 1776 by broth disk diffusion microdilution method

[10] = test system: Staphylococcus epidermidis; assay: microbe, parasite or virus in culture; conditions: PTCC 1435
Description: Antimicrobial activity against Staphylococcus epidermidis PTCC 1435 by broth disk diffusion microdilution method

HCT-116 = assay: Cytotoxicity against human HCT-116 cells; type: functional, cell-based
LNCaP = assay: Antiproliferative activity against human LNCaP cells; type: functional, cell-based
HeLa [11] = assay: Growth inhibition of human HeLa cells at 20 micromol relative to control; type: functional; conditions: dose 20 µmol
HepG2 [12] = assay: Growth inhibition of human HepG2 cells at 20 micromol relative to control; type: functional; conditions: dose 20 µmol
MDA-MB-231 = assay: Growth inhibition of human MDA-MB-231 cells at 20 micromol relative to control; type: functional; conditions: dose 20 µmol
Bacillus subtilis [13] = assay: Antibacterial activity against Bacillus subtilis; type: functional
Escherichia coli [14] = assay: microbe, parasite or virus in culture
Staphylococcus aureus [15] = assay: microbe, parasite or virus in culture
SMMC-7721 = assay: Antiproliferative activity against human SMMC-7721 cells; type: functional, cell-based
ECa-109 cell line = assay: Antiproliferative activity against human EC109 cells; type: functional, cell-based
MGC-803 = assay: Antiproliferative activity against human MGC-803 cells; type: functional, cell-based
Staphylococcus aureus [16] = assay: Antibacterial activity against Staphylococcus aureus by agar well diffusion method; type: functional
Bacillus subtilis [17] = assay: Antibacterial activity against Bacillus subtilis by agar well diffusion method; type: functional
Escherichia coli [18] = assay: Antibacterial activity against Escherichia coli by agar well diffusion method; type: functional
CCRF-CEM = assay: Antiproliferative activity against human CCRF-CEM cells; type: functional, cell-based
SK-OV-3 = assay: Antiproliferative activity against human SK-OV-3 cells; type: functional, cell-based
Saccharomyces cerevisiae = assay: Antifungal activity against Saccharomyces cerevisiae MTCC 170; type: functional
Candida albicans [19] = assay: Antifungal activity against Candida albicans; type: functional
Candida albicans [20] = assay: Antifungal activity against Candida albicans MTCC 227; type: functional
Candida albicans [21] = assay: Antifungal activity against Candida albicans RCMB 05036 assessed as zone of inhibition; type: functional
Geotrichum candidum [22] = assay: Antifungal activity against Geotrichum candidum RCMB 05097 assessed as zone of inhibition; type: functional
Candida albicans [23] = assay: Antifungal activity against Candida albicans RCMB 05036; type: functional
Leishmania major = assay: Antileishmanial activity against Leishmania major promastigotes incubated for 72 hrs by micrscopic analysis; type: functional
[24] = test system: Syncephalastrum racemosum; assay: Antifungal activity against Syncephalastrum racemosum RCMB 05922; type: functional
Candida tropicalis = assay: Antifungal activity against Candida tropicalis; type: functional
Nakaseomyces glabratus = assay: Antifungal activity against Candida glabrata; type: functional
Aspergillus fumigatus [25] = assay: Antifungal activity against Aspergillus fumigatus RCMB 02568 assessed as zone of inhibition; type: functional
Geotrichum candidum [26] = assay: Antifungal activity against Geotrichum candidum RCMB 05097; type: functional
[27] = test system: Syncephalastrum racemosum; assay: Antifungal activity against Syncephalastrum racemosum RCMB 05922 assessed as zone of inhibition; type: functional
Aspergillus fumigatus [28] = assay: Antifungal activity against Aspergillus fumigatus RCMB 02568; type: functional

Structure (SMILES): CCOC(=O)C1=C(N)Oc2c(c(=O)oc3cc(Cl)ccc23)C12C(=O)Nc1ccc(C)cc12 (stereo not drawn)
pIC50 [1]: 3.93

Structure (SMILES): COc1ccc([C@@H]2CN(C)[C@]3(C(=O)N(C)c4ccccc43)[C@]23Oc2cc(O)ccc2C3=O)cc1
Activity (Tobacco mosaic virus [2]): 51.2%
Activity (Tobacco mosaic virus [3]): 47.3%
Activity (Tobacco mosaic virus [4]): 55.1%

Structure (SMILES): O=NN(CCCl)C(=O)NCCCl [CARMUSTINE]
pIC50 [8]: 5.41

Structure (SMILES): CNC(=O)c1cc(Oc2ccc(NC(=O)Nc3ccc(Cl)c(C(F)(F)F)c3)cc2)ccn1 [SORAFENIB]
pIC50 (Huh-7): 5.15
pIC50 (cells): < 5.00

Structure (SMILES): CC1(C)CC(=O)C2=C(C1)OC(N)=C(C#N)C21C(=O)N(CCCCCCCCCCBr)c2ccccc21 (stereo not drawn)
pIC50 [8]: 5.60

Structure (SMILES): CC1(C)S[C@@H]2[C@H](NC(=O)Cc3ccccc3)C(=O)N2[C@H]1C(=O)O [PENICILLIN G]
MIC (Proteus mirabilis): 16 µg/mL (≈ 47.8 µM)
MIC [10]: 1 µg/mL (≈ 2.99 µM)

Structure (SMILES): O=C(c1c(O)c2ccccc2[nH]c1=O)[C@@H]1[C@@H](c2ccccc2Cl)C(c2ccccc2)N[C@@]12C(=O)Nc1ccccc12 (stereo partly drawn)
pIC50 (HCT-116): 5.15

Structure (SMILES): N#CC1=C(N)OC2=C(CSC/C2=C/c2ccc(C(F)(F)F)cc2)C12C(=O)Nc1ccccc12 (stereo not drawn)
growth inhibition (GI) (HeLa [11]): 83.2%
growth inhibition (GI) (HepG2 [12]): 73.1%
growth inhibition (GI) (MDA-MB-231): 61.3%

Structure (SMILES): Cc1nn(-c2ccccc2)c2c1C1(C(=O)Nc3ccc([N+](=O)[O-])cc31)C1=C(CC(C)(C)CC1=O)O2 (stereo not drawn)
MIC (Bacillus subtilis [13]): 64 µg/mL (≈ 136 µM)
MIC (Escherichia coli [14]): 128 µg/mL (≈ 272 µM)
MIC (Staphylococcus aureus [15]): 32 µg/mL (≈ 68 µM)

Structure (SMILES): C[C@]12CC[C@H](O)CC1=CCC1C2CC[C@@]2(C)C1CC[C@@H]2C1=CC2(C(=O)Nc3ccc(Cl)cc32)C(C#N)=C(N)N1 (stereo partly drawn)
pIC50 (SMMC-7721): 5.02
pIC50 (ECa-109 cell line): 5.42
pIC50 (MGC-803): 5.38

Structure (SMILES): CC1(C)CC(=O)C(=C2SC(N)=C(C#N)C3(S2)C(=O)N(Cc2ccc(Cl)cc2Cl)c2ccccc23)C(=O)C1 (stereo not drawn)
MIC (Proteus mirabilis): 16 µg/mL (≈ 28 µM)
MIC [10]: 8 µg/mL (≈ 14 µM)

Structure (SMILES): CC1(C)CC(=O)C(=C2SC(N)=C(C#N)C3(S2)C(=O)Nc2ccc(Cl)cc23)C(=O)C1 (stereo not drawn)
MIC (Proteus mirabilis): 16 µg/mL (≈ 35.9 µM)
MIC [10]: 2 µg/mL (≈ 4.48 µM)

Structure (SMILES): C[C@@H]1[C@H](O)[C@@H](C)/C=C/C=C/C=C/C=C/C=C/C=C/C=C/[C@H](O[C@@H]2O[C@H](C)[C@@H](O)[C@H](N)[C@@H]2O)C[C@@H]2O[C@](O)(C[C@@H](O)C[C@@H](O)[C@H](O)CC[C@@H](O)C[C@@H](O)CC(=O)O[C@H]1C)C[C@H](O)[C@H]2C(=O)O [AMPHOTERICIN B]
MIC (Saccharomyces cerevisiae): 100 µg/mL (≈ 108 µM)
MIC (Candida albicans [19]): 12.5 µg/mL (≈ 13.5 µM)
MIC (Candida albicans [20]): 100 µg/mL (≈ 108 µM)
diameter of the inhibition zone (DIZ) (Candida albicans [21]): 26 mm
diameter of the inhibition zone (DIZ) (Geotrichum candidum [22]): 29 mm
MIC (Candida albicans [23]): 0.06 µg/mL (≈ 0.0649 µM)
MIC (Leishmania major): 0.49 µM (≈ 0.453 µg/mL)
MIC [24]: 1.95 µg/mL (≈ 2.11 µM)
MIC (Candida tropicalis): 12.5 µg/mL (≈ 13.5 µM)
MIC (Nakaseomyces glabratus): 12.5 µg/mL (≈ 13.5 µM)
diameter of the inhibition zone (DIZ) (Aspergillus fumigatus [25]): 23 mm
MIC (Geotrichum candidum [26]): 0.015 µg/mL (≈ 0.0162 µM)
diameter of the inhibition zone (DIZ) [27]: 22.1 mm
MIC (Aspergillus fumigatus [28]): 0.015 µg/mL (≈ 0.0162 µM)

Continued, in another order:

pIC50 (A549 [6]): 4.80
pIC50 (SK-N-SH): 5.30
pIC50 (HepG2 [7]): 5.06
pIC50 (MCF7): 5.08
Structure (SMILES): Cc1cc2c(cc1C)C(Cl)=C(C1C3CCCN3C3(C(=O)Nc4ccc(I)cc43)C1C(=O)c1ccccc1)CCC2 (stereo not drawn)
pIC50 (HeLa [5]): 5.42

pIC50 (A549 [9]): 4.40
pIC50 (K562): 4.60
pIC50 (PC-3): 4.29
Structure (SMILES): Cc1noc([C@@H]2[C@H]3CCCN3[C@]3(C(=O)N(C)c4ccc(F)cc43)[C@@]23C(=O)N(C)c2ccccc23)c1[N+](=O)[O-]

pIC50 (LNCaP): 5.89
pIC50 (PC-3): 7.10
Structure (SMILES): O=C1c2ccccc2C2Oc3c(c(=O)oc4ccccc34)C3(C(=O)N(c4ccc(Cl)cc4)c4ccccc43)C12 (stereo not drawn)

MIC (Staphylococcus aureus [16]): 16 µg/mL (≈ 31.6 µM)
MIC (Bacillus subtilis [17]): 8 µg/mL (≈ 15.8 µM)
MIC (Escherichia coli [18]): 64 µg/mL (≈ 126 µM)
Structure (SMILES): CC1(C)CC(=O)C2=C(C1)N(c1ccc(Cl)cc1)C(=O)C21C2=C(Nc3ccccc31)c1ccccc1C2=O (stereo not drawn)

pIC50 (CCRF-CEM): 4.60
pIC50 (SK-OV-3): 4.41
Structure (SMILES): O=C1/C(=C/c2ccccc2)CNC[C@]12[C@@H](c1ccccc1)C1CCCN1[C@]21C(=O)Nc2ccccc21 (stereo partly drawn)

MIC (Bacillus subtilis [13]): 12 µg/mL (≈ 25.2 µM)
MIC (Escherichia coli [14]): 256 µg/mL (≈ 537 µM)
MIC (Staphylococcus aureus [15]): 128 µg/mL (≈ 269 µM)
Structure (SMILES): Cc1nn(-c2ccccc2)c2c1C1(C(=O)Nc3ccc(Br)cc31)C1=C(CCCC1=O)O2 (stereo not drawn)

pIC50 (Huh-7): 5.10
pIC50 (cells): 5.14
Structure (SMILES): O=C1OC(c2ccccc2)=N[C@@]12[C@H](c1ccc(C(F)(F)F)cc1)[C@H]1CCCN1[C@]21C(=O)Nc2ccccc21

From ChEMBL document CHEMBL5226286, “The application of isatin-based multicomponent-reactions in the quest for new bioactive and druglike molecules” (Eur J Med Chem, 2021)
